Assay results as given in ChEMBL document CHEMBL1821607, “N-Arylalkyl-2-azaadamantanes as cage-expanded polycarbocyclic sigma (σ) receptor ligands” (Bioorg Med Chem Lett, 2011).

Tests used:
[1] = biological target: Muscarinic acetylcholine receptor M5 (Homo sapiens) (UniProt P08912); assay: Inhibition of M5 muscarinic receptor at 10 uM by NIMH PDSP
[2] = biological target: T1, 5-hydroxytryptamine receptor 3A (Homo sapiens) (UniProt P46098); assay: Inhibition of 5-HT3 receptor at 10 uM by NIMH PDSP
T1 sequence (whole entry): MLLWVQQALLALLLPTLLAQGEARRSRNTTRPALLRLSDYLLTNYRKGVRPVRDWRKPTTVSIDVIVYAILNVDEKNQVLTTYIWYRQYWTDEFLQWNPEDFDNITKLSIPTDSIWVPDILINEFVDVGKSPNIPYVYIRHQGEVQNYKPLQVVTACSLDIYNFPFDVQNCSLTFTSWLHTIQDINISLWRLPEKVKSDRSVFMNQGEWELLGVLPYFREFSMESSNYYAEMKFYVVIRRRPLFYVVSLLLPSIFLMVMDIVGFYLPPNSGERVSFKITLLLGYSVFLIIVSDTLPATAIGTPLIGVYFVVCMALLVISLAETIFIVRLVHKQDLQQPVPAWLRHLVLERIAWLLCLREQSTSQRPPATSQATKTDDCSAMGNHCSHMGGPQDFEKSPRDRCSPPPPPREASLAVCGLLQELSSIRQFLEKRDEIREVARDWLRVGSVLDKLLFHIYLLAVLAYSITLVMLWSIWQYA

[3] = biological target: T2, Alpha-2C adrenergic receptor (Homo sapiens) (UniProt P18825); assay: Inhibition of alpha-2C adrenergic receptor at 10 uM by NIMH PDSP
T2 sequence (whole entry): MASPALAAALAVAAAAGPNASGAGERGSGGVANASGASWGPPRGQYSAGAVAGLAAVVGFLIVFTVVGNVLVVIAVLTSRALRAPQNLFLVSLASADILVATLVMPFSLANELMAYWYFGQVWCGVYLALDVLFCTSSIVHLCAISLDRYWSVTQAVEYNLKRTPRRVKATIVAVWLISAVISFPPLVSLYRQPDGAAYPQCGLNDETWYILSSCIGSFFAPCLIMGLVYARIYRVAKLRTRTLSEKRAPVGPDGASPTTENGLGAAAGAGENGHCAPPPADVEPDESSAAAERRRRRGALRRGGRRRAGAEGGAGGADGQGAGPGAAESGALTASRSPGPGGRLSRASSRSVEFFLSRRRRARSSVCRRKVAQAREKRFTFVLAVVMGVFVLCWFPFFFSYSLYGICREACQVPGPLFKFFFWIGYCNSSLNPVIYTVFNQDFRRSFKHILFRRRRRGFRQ

[4] = biological target: T3, Alpha-1A adrenergic receptor (Homo sapiens) (UniProt P35348); assay: Inhibition of alpha-1A adrenergic receptor at 10 uM by NIMH PDSP
T3 sequence (whole entry): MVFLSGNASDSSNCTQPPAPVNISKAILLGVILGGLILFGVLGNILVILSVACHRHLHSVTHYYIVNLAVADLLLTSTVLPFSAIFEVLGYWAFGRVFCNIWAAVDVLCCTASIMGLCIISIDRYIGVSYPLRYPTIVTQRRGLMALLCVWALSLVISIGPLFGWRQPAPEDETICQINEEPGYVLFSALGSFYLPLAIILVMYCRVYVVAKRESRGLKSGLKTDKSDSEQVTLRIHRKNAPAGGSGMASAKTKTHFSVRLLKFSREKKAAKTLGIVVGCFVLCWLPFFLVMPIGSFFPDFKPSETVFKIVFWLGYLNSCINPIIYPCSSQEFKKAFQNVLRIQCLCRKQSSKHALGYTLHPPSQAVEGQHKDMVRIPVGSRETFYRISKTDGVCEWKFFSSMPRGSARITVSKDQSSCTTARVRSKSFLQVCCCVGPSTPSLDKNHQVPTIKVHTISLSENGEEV

[5] = biological target: T4, Kappa-type opioid receptor (Homo sapiens, UniProt P41145); assay: Inhibition of kappa opioid receptor by NIMH PDSP
T4 sequence (P41145 whole entry): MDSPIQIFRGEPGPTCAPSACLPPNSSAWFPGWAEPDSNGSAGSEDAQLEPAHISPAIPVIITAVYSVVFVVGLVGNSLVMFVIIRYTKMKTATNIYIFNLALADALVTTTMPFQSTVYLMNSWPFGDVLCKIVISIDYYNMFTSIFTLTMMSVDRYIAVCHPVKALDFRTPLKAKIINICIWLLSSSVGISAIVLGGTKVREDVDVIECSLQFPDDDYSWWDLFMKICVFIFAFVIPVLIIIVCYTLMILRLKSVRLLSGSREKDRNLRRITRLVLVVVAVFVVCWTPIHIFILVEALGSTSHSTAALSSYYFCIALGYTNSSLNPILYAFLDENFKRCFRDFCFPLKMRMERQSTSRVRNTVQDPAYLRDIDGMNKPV

[6] = biological target: Sodium-dependent noradrenaline transporter (Homo sapiens, UniProt P23975); assay: Inhibition of NET transporter at 10 uM by NIMH PDSP
Chain of Sodium-dependent noradrenaline transporter (P23975 whole entry): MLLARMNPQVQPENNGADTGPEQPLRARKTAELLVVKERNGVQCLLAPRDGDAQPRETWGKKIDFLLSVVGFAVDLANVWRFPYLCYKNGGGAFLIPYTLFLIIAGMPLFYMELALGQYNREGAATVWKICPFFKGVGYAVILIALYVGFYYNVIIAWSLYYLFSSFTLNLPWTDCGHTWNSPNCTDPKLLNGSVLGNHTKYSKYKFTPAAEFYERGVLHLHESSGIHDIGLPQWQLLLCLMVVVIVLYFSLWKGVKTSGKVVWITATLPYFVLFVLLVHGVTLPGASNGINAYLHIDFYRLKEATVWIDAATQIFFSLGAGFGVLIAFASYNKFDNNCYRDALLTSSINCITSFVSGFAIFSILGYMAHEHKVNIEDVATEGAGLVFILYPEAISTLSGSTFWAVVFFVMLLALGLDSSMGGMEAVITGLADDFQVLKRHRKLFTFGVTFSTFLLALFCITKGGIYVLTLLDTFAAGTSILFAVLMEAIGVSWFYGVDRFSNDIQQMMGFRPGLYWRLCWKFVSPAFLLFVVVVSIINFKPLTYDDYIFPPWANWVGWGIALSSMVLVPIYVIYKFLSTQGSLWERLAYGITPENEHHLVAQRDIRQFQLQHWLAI

[7] = biological target: Alpha-2B adrenergic receptor (Homo sapiens, UniProt P18089); assay: Inhibition of alpha-2B adrenergic receptor by NIMH PDSP
[8] = biological target: Alpha-2A adrenergic receptor (Homo sapiens, UniProt P08913); assay: Inhibition of alpha-2A adrenergic receptor by NIMH PDSP
Chain of Alpha-2A adrenergic receptor (P08913 whole entry): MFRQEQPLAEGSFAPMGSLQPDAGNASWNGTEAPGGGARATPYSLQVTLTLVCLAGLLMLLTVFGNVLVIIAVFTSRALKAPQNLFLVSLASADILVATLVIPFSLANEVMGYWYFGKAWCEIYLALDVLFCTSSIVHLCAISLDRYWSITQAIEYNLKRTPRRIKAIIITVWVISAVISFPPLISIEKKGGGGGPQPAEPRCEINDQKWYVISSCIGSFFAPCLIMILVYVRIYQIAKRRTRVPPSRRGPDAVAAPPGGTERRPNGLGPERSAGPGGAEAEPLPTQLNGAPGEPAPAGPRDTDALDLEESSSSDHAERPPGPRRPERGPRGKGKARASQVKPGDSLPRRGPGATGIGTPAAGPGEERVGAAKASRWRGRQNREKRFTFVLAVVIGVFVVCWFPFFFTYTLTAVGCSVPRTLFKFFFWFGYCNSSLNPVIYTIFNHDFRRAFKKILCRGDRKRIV

[9] = biological target: Muscarinic acetylcholine receptor M4 (Homo sapiens) (UniProt P08173); assay: Inhibition of M4 muscarinic receptor at 10 uM by NIMH PDSP
Chain of Muscarinic acetylcholine receptor M4 (Homo sapiens) (P08173 whole entry): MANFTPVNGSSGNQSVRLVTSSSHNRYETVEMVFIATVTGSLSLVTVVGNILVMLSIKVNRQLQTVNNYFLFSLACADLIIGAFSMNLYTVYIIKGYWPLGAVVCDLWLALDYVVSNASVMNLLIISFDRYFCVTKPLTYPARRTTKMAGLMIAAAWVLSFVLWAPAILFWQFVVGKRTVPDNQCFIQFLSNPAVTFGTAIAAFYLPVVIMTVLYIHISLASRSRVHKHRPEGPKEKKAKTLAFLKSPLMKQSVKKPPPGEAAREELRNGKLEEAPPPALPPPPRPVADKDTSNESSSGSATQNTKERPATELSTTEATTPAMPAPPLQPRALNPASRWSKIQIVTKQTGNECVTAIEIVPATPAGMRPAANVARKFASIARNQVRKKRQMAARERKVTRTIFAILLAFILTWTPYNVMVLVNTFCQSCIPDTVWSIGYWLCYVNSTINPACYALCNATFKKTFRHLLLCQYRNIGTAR

[10] = biological target: Muscarinic acetylcholine receptor M2 (Homo sapiens) (UniProt P08172); assay: Inhibition of M2 muscarinic receptor at 10 uM by NIMH PDSP
Chain of Muscarinic acetylcholine receptor M2 (Homo sapiens) (P08172 whole entry): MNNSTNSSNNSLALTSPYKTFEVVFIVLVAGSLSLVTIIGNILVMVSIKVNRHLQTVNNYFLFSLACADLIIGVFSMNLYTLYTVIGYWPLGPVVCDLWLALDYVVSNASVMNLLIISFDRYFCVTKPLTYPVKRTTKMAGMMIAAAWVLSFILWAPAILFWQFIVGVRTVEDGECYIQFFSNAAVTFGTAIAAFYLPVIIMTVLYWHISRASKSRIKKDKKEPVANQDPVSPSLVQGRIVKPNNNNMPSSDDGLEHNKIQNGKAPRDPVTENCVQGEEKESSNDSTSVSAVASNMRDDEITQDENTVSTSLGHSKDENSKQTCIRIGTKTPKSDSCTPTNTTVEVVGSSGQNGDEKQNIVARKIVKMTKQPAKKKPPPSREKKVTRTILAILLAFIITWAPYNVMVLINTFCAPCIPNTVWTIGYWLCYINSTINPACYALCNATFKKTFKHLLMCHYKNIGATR

[11] = Selectivity ratio of Ki for sigma 1 receptor in guinea pig brain to Ki for sigma 2 receptor in rat liver
[12] = biological target: T5, Alpha-2B adrenergic receptor (Homo sapiens) (UniProt P18089); assay: Inhibition of alpha-2B adrenergic receptor at 10 uM by NIMH PDSP
T5 sequence (whole entry): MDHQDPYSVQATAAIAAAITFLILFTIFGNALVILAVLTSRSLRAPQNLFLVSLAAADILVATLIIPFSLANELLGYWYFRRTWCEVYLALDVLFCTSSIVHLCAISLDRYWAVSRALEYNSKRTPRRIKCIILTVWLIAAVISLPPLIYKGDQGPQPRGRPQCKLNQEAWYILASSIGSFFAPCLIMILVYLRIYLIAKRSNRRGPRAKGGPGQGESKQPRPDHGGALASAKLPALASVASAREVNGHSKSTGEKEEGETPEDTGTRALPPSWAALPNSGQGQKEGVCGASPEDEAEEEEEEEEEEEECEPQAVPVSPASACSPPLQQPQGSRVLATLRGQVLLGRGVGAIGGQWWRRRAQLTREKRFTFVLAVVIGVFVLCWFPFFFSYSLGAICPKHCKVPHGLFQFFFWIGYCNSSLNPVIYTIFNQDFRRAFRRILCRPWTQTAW

[13] = biological target: Muscarinic acetylcholine receptor M2 (Homo sapiens, UniProt P08172); assay: Inhibition of M2 muscarinic receptor by NIMH PDSP
Chain of Muscarinic acetylcholine receptor M2 (P08172 whole entry): as the sequence (P08172 whole entry) above

[14] = biological target: Sodium-dependent dopamine transporter (Homo sapiens) (UniProt Q01959); assay: Inhibition of DAT transporter at 10 uM by NIMH PDSP
Chain of Sodium-dependent dopamine transporter (Homo sapiens) (Q01959 whole entry): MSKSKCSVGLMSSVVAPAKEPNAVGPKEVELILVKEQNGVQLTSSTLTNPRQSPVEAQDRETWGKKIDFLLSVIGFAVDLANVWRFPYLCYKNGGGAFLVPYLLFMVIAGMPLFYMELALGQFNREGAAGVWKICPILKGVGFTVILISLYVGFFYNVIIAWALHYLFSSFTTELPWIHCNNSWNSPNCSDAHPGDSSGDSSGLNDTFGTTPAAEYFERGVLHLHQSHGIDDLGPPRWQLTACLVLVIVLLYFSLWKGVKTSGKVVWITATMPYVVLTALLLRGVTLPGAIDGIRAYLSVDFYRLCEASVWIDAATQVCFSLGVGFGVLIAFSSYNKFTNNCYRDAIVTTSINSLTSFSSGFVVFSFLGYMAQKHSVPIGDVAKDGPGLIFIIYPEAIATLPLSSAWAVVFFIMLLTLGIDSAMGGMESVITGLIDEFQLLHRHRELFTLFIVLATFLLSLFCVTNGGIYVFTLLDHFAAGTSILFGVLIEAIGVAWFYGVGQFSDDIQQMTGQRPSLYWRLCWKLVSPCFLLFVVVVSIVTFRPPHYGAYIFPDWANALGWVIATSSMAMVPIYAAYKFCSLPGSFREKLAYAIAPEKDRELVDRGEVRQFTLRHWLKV

[15] = biological target: T4, Kappa-type opioid receptor; assay: Inhibition of kappa opioid receptor at 10 uM by NIMH PDSP
[16] = biological target: Alpha-1A adrenergic receptor (Homo sapiens, UniProt P35348); assay: Inhibition of alpha-1A adrenergic receptor by NIMH PDSP
D(1A) dopamine receptor = D(1A) dopamine receptor (Homo sapiens, UniProt P21728); assay: Inhibition of D1 dopamine receptor by NIMH PDSP
Chain of D(1A) dopamine receptor (P21728 whole entry): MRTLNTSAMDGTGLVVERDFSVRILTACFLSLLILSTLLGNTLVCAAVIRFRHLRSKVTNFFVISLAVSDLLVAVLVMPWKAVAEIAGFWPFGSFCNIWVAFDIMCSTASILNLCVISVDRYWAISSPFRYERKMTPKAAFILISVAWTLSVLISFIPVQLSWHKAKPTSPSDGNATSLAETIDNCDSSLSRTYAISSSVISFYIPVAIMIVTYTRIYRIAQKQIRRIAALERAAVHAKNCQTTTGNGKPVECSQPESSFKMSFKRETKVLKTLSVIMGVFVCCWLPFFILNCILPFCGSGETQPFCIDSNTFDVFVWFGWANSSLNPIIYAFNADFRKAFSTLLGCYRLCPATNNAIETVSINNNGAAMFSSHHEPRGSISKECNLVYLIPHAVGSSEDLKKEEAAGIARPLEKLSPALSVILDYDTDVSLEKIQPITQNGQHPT

[17] = Selectivity ratio of Ki for sigma 2 receptor in rat liver to Ki for sigma 1 receptor in guinea pig brain
[18] = biological target: Muscarinic acetylcholine receptor M4 (Homo sapiens, UniProt P08173); assay: Inhibition of M4 muscarinic receptor by NIMH PDSP
Chain of Muscarinic acetylcholine receptor M4 (P08173 whole entry): as the sequence (P08173 whole entry) above

[19] = biological target: Muscarinic acetylcholine receptor M5 (Homo sapiens, UniProt P08912); assay: Inhibition of M5 muscarinic receptor by NIMH PDSP
Chain of Muscarinic acetylcholine receptor M5 (P08912 whole entry): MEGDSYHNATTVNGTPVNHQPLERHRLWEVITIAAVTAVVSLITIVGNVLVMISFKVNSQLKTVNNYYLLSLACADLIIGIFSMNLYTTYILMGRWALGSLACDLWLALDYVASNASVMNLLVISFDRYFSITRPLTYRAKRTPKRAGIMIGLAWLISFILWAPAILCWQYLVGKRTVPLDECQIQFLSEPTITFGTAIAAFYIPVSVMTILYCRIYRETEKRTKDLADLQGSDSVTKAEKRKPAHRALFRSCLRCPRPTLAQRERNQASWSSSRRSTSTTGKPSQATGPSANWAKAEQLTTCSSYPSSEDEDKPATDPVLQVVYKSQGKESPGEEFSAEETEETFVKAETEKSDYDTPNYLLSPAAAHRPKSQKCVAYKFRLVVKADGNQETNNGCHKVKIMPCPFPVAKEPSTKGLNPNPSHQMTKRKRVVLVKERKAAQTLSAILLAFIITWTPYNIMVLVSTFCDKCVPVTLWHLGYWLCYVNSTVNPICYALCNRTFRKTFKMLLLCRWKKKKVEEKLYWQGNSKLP

Chain of Muscarinic acetylcholine receptor M5 (Homo sapiens) (P08912 whole entry): as above

## OC12CC3CC(CC(C3)N1Cc1ccccc1)C2 (racemic)
[1]
  inhibition: < 50%
[2]
  inhibition: < 50%
[3]
  inhibition: < 50%
[4]
  inhibition: < 50%
[5]
  Ki: 0.662 µM
[6]
  inhibition: < 50%
[7]
  Ki: > 10 µM
[8]
  Ki: > 10 µM
[9]
  inhibition: < 50%
[10]
  inhibition: < 50%
[11]
  Ratio Ki: 1.4

## OC12CC3CC(CC(C3)N1Cc1cccc(F)c1)C2 (racemic)
[1]
  inhibition: < 50%
[2]
  inhibition: < 50%
[3]
  inhibition: < 50%
[12]
  inhibition: < 50%
[4]
  inhibition: < 50%
[5]
  Ki: 1.2 µM
[9]
  inhibition: < 50%
[10]
  inhibition: < 50%
[11]
  Ratio Ki: 1.2

## Fc1cccc(CN2C3CC4CC(C3)CC2C4)c1
[13]
  Ki: 3.54 µM
[14]
  inhibition: < 50%
[2]
  inhibition: < 50%
[3]
  inhibition: < 50%
[12]
  inhibition: < 50%
[15]
  inhibition: < 50%
[16]
  Ki: > 10 µM
D(1A) dopamine receptor
  Ki: > 10 µM
[17]
  Ratio Ki: 6
[18]
  Ki: 1.36 µM
[19]
  Ki: 5.48 µM

## c1ccc(CN2C3CC4CC(C3)CC2C4)cc1
[13]
  Ki: 4.3 µM
[14]
  inhibition: < 50%
[2]
  inhibition: < 50%
[3]
  inhibition: < 50%
[12]
  inhibition: < 50%
[15]
  inhibition: < 50%
[4]
  inhibition: < 50%
[17]
  Ratio Ki: 3.3
[18]
  Ki: 1.78 µM
[19]
  Ki: 6.55 µM
